Blank lines part the entries; values can stand above or below the molecule they belong to.
Key:
ENPP1 in mouse plasma = target: T1, ENPP1 in mouse plasma (Mus musculus, UniProt P06802); experiment: Inhibition of cGAMP degradation in mouse plasma; assay type: biochemical; settings: 50 mM EDTA, 37 °C
T1 sequence (P06802 85-906 limits assumed): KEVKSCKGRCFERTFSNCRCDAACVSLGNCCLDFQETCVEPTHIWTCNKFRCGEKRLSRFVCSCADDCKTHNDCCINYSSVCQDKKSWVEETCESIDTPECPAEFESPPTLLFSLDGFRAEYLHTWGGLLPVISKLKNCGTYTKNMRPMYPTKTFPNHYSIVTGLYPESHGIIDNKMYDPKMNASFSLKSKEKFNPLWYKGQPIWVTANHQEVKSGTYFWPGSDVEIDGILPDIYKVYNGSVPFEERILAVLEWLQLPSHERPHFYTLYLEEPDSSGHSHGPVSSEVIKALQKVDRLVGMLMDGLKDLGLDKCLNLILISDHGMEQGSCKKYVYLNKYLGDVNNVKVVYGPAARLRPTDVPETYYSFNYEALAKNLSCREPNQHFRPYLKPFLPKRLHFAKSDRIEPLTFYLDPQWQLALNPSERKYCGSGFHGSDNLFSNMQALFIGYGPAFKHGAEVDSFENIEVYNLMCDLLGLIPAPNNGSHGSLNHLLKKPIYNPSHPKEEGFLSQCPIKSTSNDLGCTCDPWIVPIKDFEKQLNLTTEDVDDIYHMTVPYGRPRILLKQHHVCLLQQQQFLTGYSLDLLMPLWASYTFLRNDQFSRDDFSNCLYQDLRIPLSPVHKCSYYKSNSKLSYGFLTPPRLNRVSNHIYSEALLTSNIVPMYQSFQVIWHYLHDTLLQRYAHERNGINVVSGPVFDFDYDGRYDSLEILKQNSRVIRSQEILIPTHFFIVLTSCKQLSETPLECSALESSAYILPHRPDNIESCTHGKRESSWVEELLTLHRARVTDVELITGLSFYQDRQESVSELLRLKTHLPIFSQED

ENPP1 in human plasma = ENPP1 in human plasma (Homo sapiens, UniProt P22413); settings: 50 mM EDTA, 37 °C
Chain of ENPP1 in human plasma (P22413 103-925 limits assumed): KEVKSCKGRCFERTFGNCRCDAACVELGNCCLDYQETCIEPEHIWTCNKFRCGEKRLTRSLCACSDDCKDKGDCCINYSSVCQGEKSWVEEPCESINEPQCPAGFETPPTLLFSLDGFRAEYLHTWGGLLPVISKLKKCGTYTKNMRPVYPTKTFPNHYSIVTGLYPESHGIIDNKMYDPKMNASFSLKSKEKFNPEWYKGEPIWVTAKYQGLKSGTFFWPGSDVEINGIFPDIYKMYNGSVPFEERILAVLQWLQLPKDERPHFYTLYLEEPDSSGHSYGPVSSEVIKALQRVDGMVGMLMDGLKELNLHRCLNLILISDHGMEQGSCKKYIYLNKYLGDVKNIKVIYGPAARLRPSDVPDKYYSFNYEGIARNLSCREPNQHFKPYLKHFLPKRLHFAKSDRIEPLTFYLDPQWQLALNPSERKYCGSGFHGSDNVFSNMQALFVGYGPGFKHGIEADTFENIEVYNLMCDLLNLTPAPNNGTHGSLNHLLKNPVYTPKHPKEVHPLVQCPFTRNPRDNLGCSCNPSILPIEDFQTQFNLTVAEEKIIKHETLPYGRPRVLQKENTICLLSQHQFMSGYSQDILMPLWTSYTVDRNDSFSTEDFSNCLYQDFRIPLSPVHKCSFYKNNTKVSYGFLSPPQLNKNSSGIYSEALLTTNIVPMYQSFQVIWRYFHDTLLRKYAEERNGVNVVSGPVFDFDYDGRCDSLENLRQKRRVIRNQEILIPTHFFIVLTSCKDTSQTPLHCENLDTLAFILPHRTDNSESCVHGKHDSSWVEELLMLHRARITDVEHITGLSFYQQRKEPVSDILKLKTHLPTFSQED

[1] = Plasma kinetics: half-life of radiolabeled cGAMP in human plasma; assay type: in vitro ADME; settings: based on 5 healthy donors, 5 μM cGAMP, 37 °C
Mouse ENPP1 [2] = target: T2, Mouse ENPP1 (Mus musculus, UniProt P06802); settings: substrate cGAMP, pH 7.4
T2 sequence (P06802 92-905 isoform P06802-2): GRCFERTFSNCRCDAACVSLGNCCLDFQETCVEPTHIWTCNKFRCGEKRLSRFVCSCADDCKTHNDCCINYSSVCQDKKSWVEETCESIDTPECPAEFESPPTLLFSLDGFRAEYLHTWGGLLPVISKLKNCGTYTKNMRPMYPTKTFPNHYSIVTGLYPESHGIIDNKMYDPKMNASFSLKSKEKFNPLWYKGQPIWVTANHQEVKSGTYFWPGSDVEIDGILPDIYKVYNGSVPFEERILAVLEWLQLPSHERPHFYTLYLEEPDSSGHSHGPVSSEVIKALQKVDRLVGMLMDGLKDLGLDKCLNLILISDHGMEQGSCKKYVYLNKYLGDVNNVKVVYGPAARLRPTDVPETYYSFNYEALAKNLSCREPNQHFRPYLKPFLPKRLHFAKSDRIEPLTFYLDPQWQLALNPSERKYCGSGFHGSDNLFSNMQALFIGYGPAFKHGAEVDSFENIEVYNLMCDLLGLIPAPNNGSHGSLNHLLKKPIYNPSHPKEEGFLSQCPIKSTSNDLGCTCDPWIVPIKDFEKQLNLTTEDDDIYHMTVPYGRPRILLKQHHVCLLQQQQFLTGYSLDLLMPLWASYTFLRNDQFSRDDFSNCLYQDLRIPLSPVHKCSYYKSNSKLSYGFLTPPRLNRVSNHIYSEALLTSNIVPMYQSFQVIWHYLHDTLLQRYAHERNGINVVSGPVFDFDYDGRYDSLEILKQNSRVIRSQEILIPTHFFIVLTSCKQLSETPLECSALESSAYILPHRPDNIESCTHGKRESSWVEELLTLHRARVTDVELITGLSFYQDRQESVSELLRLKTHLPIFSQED

[3] = Plasma kinetics: half-life of radiolabeled cGAMP in mouse plasma; assay type: in vitro ADME; settings: 5 μM cGAMP, 37 °C
hERG channel = hERG channel (Homo sapiens, UniProt Q12809); experiment: hERG channel inhibition assay; settings: at 25 μM
Chain of hERG channel (Q12809 whole entry): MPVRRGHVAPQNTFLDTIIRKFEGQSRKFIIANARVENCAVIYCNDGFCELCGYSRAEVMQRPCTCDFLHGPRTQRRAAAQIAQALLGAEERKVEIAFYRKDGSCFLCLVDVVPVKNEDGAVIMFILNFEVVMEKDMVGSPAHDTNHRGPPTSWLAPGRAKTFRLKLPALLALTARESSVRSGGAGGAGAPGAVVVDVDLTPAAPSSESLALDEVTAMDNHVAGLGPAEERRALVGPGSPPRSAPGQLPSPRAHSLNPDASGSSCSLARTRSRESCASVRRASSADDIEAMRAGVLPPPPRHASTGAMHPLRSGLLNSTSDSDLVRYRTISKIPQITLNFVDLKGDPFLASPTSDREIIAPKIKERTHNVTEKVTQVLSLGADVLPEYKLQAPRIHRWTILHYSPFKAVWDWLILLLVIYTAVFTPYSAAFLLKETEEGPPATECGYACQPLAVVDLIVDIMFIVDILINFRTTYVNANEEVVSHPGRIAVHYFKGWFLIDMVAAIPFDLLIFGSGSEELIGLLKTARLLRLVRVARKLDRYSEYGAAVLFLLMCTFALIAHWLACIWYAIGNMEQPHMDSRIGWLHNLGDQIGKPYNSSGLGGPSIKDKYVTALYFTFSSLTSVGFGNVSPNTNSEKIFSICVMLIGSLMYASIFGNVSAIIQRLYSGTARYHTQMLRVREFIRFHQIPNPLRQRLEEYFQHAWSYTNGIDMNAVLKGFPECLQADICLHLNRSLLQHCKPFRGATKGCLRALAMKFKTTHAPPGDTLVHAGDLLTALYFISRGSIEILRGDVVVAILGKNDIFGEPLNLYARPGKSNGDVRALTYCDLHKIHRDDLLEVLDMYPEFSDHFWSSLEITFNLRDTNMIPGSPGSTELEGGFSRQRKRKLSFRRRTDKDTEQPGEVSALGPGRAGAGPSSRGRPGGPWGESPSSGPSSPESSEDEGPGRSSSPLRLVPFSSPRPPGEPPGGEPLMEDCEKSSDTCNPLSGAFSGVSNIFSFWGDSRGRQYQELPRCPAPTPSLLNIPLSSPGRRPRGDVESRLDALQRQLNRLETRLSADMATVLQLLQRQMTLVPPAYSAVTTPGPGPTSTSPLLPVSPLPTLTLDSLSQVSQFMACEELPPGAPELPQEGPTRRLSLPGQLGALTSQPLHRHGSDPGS

Mouse ENPP1 [4] = target: T2, Mouse ENPP1; experiment: In vitro ENPP1 activity assay with cGAMP as substrate; assay type: biochemical; settings: Ki at pH 7.4

effect on cGAMP degradation (ENPP1 in mouse plasma): abrogated cGAMP degradation | effect on cGAMP degradation (ENPP1 in human plasma): abrogated cGAMP degradation
SMILES: O=C(O)CN(CCN(CC(=O)O)CC(=O)O)CC(=O)O [EDTA]

SMILES: Nc1nc2c(ncn2[C@@H]2O[C@@H]3COP(=O)(O)O[C@H]4[C@@H](O)[C@H](n5cnc6c(N)ncnc65)O[C@@H]4COP(=O)(O)O[C@@H]2[C@@H]3O)c(=O)[nH]1 [cGAMP, 2’,3’-cyclic GMP-AMP]
t1/2 of cGAMP [1]: 30 to 60 min | Km (Mouse ENPP1 [2]): 240 µM | t1/2 of cGAMP [3]: 16 min

SMILES: COc1cc2ncnc(N3CCC(CCP(=O)(O)O)CC3)c2cc1OC [compound 15]
hERG inhibition (hERG channel): no inhibition

SMILES: COc1ccc2ncnc(N3CCC(CCP(=O)(O)O)CC3)c2c1 [compound 25]
loss in potency compared to compound 15 (Mouse ENPP1 [4]): 100 fold

SMILES: COc1cc2nccc(N3CCC(CCP(=O)(O)O)CC3)c2cc1OC [compound 46]
loss in potency compared to compound 15 (Mouse ENPP1 [4]): 3 fold

Reference: PMC7680421 (Cell chemical biology, 2020)
